# Legend:
# Type in all cases: biochemical
# bovine trypsin = molecular target: T1, bovine trypsin (Bos taurus, UniProt P00760); experiment: Inactivation rate of bovine trypsin, incubation method; settings: for kobs /[I] bovine trypsin: 0.13 μM trypsin, 0.25-42 μM inhibitor, 80 mM Hepes pH 7.5, 1 mM CaCl2, 8% DMSO, 25° C., NI = no inhibition; for kobsd /[I] bovine trypsin: Table I, 0.1M Hepes, 0.01M CaCl2 pH 7.5, 25° C., 2% DMSO, substrate Z--Arg--SBzl, NI = no inhibition after 25 min
# T1 sequence (P00760 24-246): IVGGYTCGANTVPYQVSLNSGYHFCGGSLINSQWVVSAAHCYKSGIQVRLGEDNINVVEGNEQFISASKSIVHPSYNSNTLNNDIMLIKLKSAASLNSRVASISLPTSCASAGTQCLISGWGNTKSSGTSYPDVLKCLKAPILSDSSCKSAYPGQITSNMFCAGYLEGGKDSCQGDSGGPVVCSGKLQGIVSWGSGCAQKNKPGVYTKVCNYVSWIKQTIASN
# Protocol: (§1) Inactivation rates of serine proteases by aryl diesters of peptidyl derivatives of α-aminoalkylphosphonates were measured by the incubation method. An aliquot of inhibitor (25 or 50 μl) in Me2 SO was added to a buffered enzyme solution (0.01-2.3 μM) to initiate the inactivation. Aliquots (50 μl) were withdrawn at various intervals and the residual enzymatic activity was measured. Me2 SO concentration in the reaction mixture was 8-12% (v/v). A 0.1 M HEPES, 0.01 M CaCl2, pH 7.5 buffer was utilized for trypsin and trypsin-like enzymes. A 0.1 M HEPES, 0.5 M NaCl, pH 7.5, was utilized for the other serine proteases. Peptide thioesters or peptide nitroanilides with the appropriate sequences were used as substrates for various serine proteases. All peptide thioesters hydrolysis rates were measured with the assay mixture containing 4,4'-dithiodipyridine {ε324 =19800 M^-1 cm^-1; Grasetti & Murray, Arch. Biochem. Biophys. 1967, 119, 41-48}. Peptide 4-nitroanilide hydrolysis was measured at 410 nm {ε410 =8800 M^-1 cm^-1; Erlanger et al., Arch. Biochem. Biophys. 1961, 95, 271-278}. First order inactivation rate constants (Kobs) were obtained from plots of In vt /vo vs time, and the correlation coefficients were greater then 0.98.
# (§2) ^a Inhibition constants were measured in 0.1M Hepes, 0.01M CaCl2
# (§3) pH 7.5 for trypsin, granzymes A, and K, and in 0.1M Hepes, 10% glycerol,
# (§4) 10 mM heparin, pH 7.5 for mast cell tryptase, and at 25° C. The
# (§5) reaction mixtures contained 2% DMSO for trypsin, 7.6% for granzyme A, and
# (§6) 7.1% for granzyme K and tryptase. The substrate was Z--Arg--SBzl for
# (§7) granzymes and trypsin, and Z--Arg--SBzl or Z--Lys--SBzl for tryptase in
# (§8) the presence of DTNB. The inhibitor # concentration ranged from 0.001 to
# (§9) ^b NI, no inhibition after 25 min of incubation with enzyme.
# (§10) ^a Enzyme was incubated with the inhibitor in 250 μL of the proper
# (§11) buffer at 25° C. Specifically, the inhibition reation mixtures wer
# composed of: 0.13 μM trypsin, 0.25-42 μM inhibitor in an 80 mM
# (§12) Hepes, pH 7.5 buffer containing 1 mM CaCl2 and 8% DMSO; 0.07 μM
# (§13) DMSO. Aliquots of 25 μL were withdrawn at various intervals and the
# (§14) residual enzymatic activity was measured as described in experimental
# (§15) section. The kobs values were calculated from pseudofirst-order
# (§16) ^a Enzyme (0.06-0.5 μM) was incubated with the inhibitor (0.25-42
# (§17) μM) in 250 μL of the proper buffer containing 9% DMSO at 25°
# (§18) C. The final inhibition reaction mixtures are given in the footnote to
# (§19) Table 1. Aliquots of 25 μL were withdrawn at various intervals and the […]
# human thrombin = molecular target: T2, human thrombin (Homo sapiens, UniProt P00734); settings: Table II; for kobs /[I] human thrombin: 0.07 μM thrombin, 0.25-42 μM inhibitor, 80 mM Hepes pH 7.5, 428 mM NaCl, 8% DMSO, 25° C., NI = no inhibition; for % Inh human thrombin: printed in the kobs/[I] column
# T2 construct: bovine trypsin, human thrombin
# Protocol: as §1, with “271-278}.” for “271-278}. First order inactivation rate constants (Kobs) were obtained from plots of In vt /vo vs time, and the correlation coefficients were greater then 0.98.”
# as §10, §11, §12
# thrombin, 0.25-42 μM inhibitor in an 80 mM Hepes, pH 7.5 buffer
# (§20) containing 428 mM NaCl and 8% DMSO; 0.07 μM tryptase, 20-66 μM
# as §13, §14, §15, §16, §17, §18, §19
# human granzyme A = molecular target: T3, human granzyme A (Homo sapiens, UniProt P12544); experiment: Inactivation rate of human granzyme A, incubation method; settings: Table I; 0.1M Hepes, 0.01M CaCl2 pH 7.5, 25° C., 7.6% DMSO, substrate Z--Arg--SBzl
# T3 sequence (P12544 29-262): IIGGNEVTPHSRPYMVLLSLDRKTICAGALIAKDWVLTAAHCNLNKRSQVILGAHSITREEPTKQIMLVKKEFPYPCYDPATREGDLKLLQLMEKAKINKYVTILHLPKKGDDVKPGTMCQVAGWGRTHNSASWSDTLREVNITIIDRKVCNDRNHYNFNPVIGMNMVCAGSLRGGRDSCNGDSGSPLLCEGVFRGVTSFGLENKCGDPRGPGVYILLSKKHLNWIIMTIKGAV
# Protocol: as §1, §2, §3, §4, §5, §6, §7, §8, §9
# mast cell tryptase = mast cell tryptase (Homo sapiens, UniProt Q15661); experiment: Inactivation rate of mast cell tryptase, incubation method; settings: for kobs /[I] mast cell tryptase: Table II, 0.07 μM tryptase, 20-66 μM inhibitor, Hepes pH 7.5, heparin, 9% glycerol, 8% DMSO, 25° C., NI = no inhibition
# Protocol: as §1, §2, §3, §4, §5, §6, §7, §8, §9, §10, §20
# inhibitor # in an mM Hepes, pH 7.5 buffer containing 8 mM heparin, 166 m
# NaCl, 0.8 mM Mes, 9% glycerol and 8% DMSO; 0.42 μM factor Xa, 66 μM
# as §13, §14, §15, §16, §17, §18, §19
# mast cell tryptase, sequence (Q15661 31-275): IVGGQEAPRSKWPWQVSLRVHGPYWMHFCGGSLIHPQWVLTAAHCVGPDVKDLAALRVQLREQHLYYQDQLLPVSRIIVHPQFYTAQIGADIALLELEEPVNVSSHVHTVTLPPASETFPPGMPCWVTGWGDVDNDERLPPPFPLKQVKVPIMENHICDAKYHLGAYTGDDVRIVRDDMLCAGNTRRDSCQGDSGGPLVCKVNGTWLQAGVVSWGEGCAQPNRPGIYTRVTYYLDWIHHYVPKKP
compound,measurement,setting,value
CC(C)CC(NC(=O)C(CC(N)=O)NC(=O)OC(C)(C)C)C(=O)NC(C(=O)NC(c1ccc(C(=N)N)cc1)P(=O)(Oc1ccccc1)Oc1ccccc1)C(C)O (mixture of isomers) [Boc--Asn--Leu--Thr-(4-AmPhGly)^P (OPh)2],kobs /[I] bovine trypsin,bovine trypsin; Table II,18 ± 2 M⁻¹ s⁻¹
same,kobs /[I] human thrombin,human thrombin,46 ± 6 M⁻¹ s⁻¹
CC(C)C(NC(=O)C(Cc1ccccc1)NC(=O)OC(C)(C)C)C(=O)NC(c1ccc(C(=N)N)cc1)P(=O)(Oc1ccccc1)Oc1ccccc1 (mixture of isomers) [Boc--D--Phe--Val-(4-AmPhGly)^P (OPh)2],kobs /[I] bovine trypsin,bovine trypsin; Table II,30 ± 2 M⁻¹ s⁻¹
same,kobs /[I] human thrombin,human thrombin,63 ± 4 M⁻¹ s⁻¹
CC(C)CC(NC(=O)OC(C)(C)C)C(=O)NC(CO)C(=O)NC(c1ccc(C(=N)N)cc1)P(=O)(Oc1ccccc1)Oc1ccccc1 (mixture of isomers) [Boc--Leu--Ser-(4-AmPhGly)^P (OPh)2],kobs /[I] bovine trypsin,bovine trypsin; Table II,177 ± 2 M⁻¹ s⁻¹
same,kobs /[I] human thrombin,human thrombin,97 ± 2 M⁻¹ s⁻¹
CC(C)CC(NC(=O)OC(C)(C)C)C(=O)NC(C(=O)NC(c1ccc(C(=N)N)cc1)P(=O)(Oc1ccccc1)Oc1ccccc1)C(C)O (mixture of isomers) [Boc--Leu--Thr-(4-AmPhGly)^P (OPh)2],kobs /[I] bovine trypsin,bovine trypsin; Table II,35 ± 6 M⁻¹ s⁻¹
same,kobs /[I] human thrombin,human thrombin,75 ± 1 M⁻¹ s⁻¹
CC(C)C(NC(=O)OC(C)(C)C)C(=O)NC(C(=O)NC(c1ccc(C(=N)N)cc1)P(=O)(Oc1ccccc1)Oc1ccccc1)C(C)C (mixture of isomers) [Boc--Val--Val-(4-AmPhGly)^P (OPh)2],kobs /[I] bovine trypsin,bovine trypsin; Table II,61 ± 5 M⁻¹ s⁻¹
same,kobs /[I] human thrombin,human thrombin,85 ± 5 M⁻¹ s⁻¹
CC(C)CC(NC(=O)OCc1ccccc1)C(=O)NC(c1ccc(C(=N)N)cc1)P(=O)(Oc1ccccc1)Oc1ccccc1 (mixture of isomers) [Cbz--Leu-(4-AmPhGly)^P (OPh)2],kobsd /[I] human granzyme A,human granzyme A,6.3 ± 0.7 M⁻¹ s⁻¹
same,kobsd /[I] mast cell tryptase,"mast cell tryptase; Table I, 0.1M Hepes, 10% glycerol, 10 mM heparin, pH 7.5, 25° C., 7.1% DMSO, NI = no inhibition after 25 min of incubation",0.3 M⁻¹ s⁻¹
same,kobs /[I] mast cell tryptase,mast cell tryptase,0.3 M⁻¹ s⁻¹
same,kobsd /[I] bovine trypsin,bovine trypsin,50 ± 1 M⁻¹ s⁻¹
same,kobs /[I] bovine trypsin,bovine trypsin; Table II,1.3 ± 0.1 M⁻¹ s⁻¹
same,% Inh human thrombin,human thrombin,19%
N=C(N)c1ccc(C(NC(=O)C(Cc2c[nH]c3ccccc23)NC(=O)OCc2ccccc2)P(=O)(Oc2ccccc2)Oc2ccccc2)cc1 (mixture of isomers) [Cbz--Trp-(4-AmPhGly)^P (OPh)2],kobs /[I] bovine trypsin,bovine trypsin; Table II,0.6 M⁻¹ s⁻¹
same,kobs /[I] human thrombin,human thrombin,1.2 ± 0.0 M⁻¹ s⁻¹
CC(C)CC(N)C(=O)NC(C(=O)NC(c1ccc(C(=N)N)cc1)P(=O)(Oc1ccccc1)Oc1ccccc1)C(C)O (mixture of isomers) [Leu--Thr-(4-AmPhGly)^P (OPh)2],kobs /[I] bovine trypsin,bovine trypsin; Table II,24.5 ± 0.0 M⁻¹ s⁻¹
same,kobs /[I] human thrombin,human thrombin,58 ± 3 M⁻¹ s⁻¹
Cc1ccc(S(=O)(=O)NC(c2ccc(C(=N)N)cc2)P(=O)(Oc2ccccc2)Oc2ccccc2)cc1 (racemic) [Tolyl-SO2-(4-AmPhGly)^P (OPh)2],kobs /[I] bovine trypsin,bovine trypsin; Table II,35 ± 6 M⁻¹ s⁻¹
same,kobs /[I] human thrombin,human thrombin,94 ± 26 M⁻¹ s⁻¹
N=C(N)c1ccc(C(NC(=O)CCCc2ccccc2)P(=O)(Oc2ccccc2)Oc2ccccc2)cc1 (stereo not drawn) [4-Phenylbutanoyl-(4-AmPhGly)^P (OPh)2],% Inh bovine trypsin,"bovine trypsin; Table II, printed in the kobs/[I] column",15%
same,kobs /[I] human thrombin,human thrombin,17 ± 1 M⁻¹ s⁻¹
"Cl.N=C(N)c1cccc(C(NC(=O)OCc2ccccc2)P(=O)(Oc2ccccc2)Oc2ccccc2)c1 (stereo not drawn) [Cbz-(3-AmPhGly)^P (OPh)2, Diphenyl N-Benzyloxycarbonylamino-(3-amidinophenyl)methanephosphonate Hydrochloride]",% Inh human thrombin,human thrombin,50%
"Cl.N=C(N)c1ccc(C(NC(=O)OCc2ccccc2)P(=O)(Oc2ccccc2)Oc2ccccc2)cc1 (stereo not drawn) [Cbz-(4-AmPhGly)^P (OPh)2, Diphenyl N-benzyloxycarbonylamino(4-amidinophenyl)methanephosphonate hydrochloride]",kobsd /[I] bovine trypsin,bovine trypsin,2000 M⁻¹ s⁻¹
same,kobs /[I] bovine trypsin,bovine trypsin; Table II,170 M⁻¹ s⁻¹
same,kobs /[I] human thrombin,human thrombin,80 M⁻¹ s⁻¹
"Cl.N=C(N)c1ccc(C(NC(=O)OCc2ccccc2)P(=O)(O)Oc2ccccc2)cc1 (stereo not drawn) [Cbz-(4-AmPhGly)^P (OPh)(OH), Phenyl Hydrogen N-Benzyloxycarbonylamino-(4-amidinophenyl)methanephosphonate Hydrochloride]",kobs /[I] bovine trypsin,bovine trypsin; Table II,0.3 M⁻¹ s⁻¹
"COP(=O)(Oc1ccccc1)C(NC(=O)OCc1ccccc1)c1ccc(C(=N)N)cc1.Cl (stereo not drawn) [Cbz-(4-AmPhGly)^P (OPh)(OMe), Methyl Phenyl N-Benzyloxycarbonylamino-(4-amidinophenyl)methanephosphonate Hydrochloride]",kobs /[I] bovine trypsin,bovine trypsin; Table II,83 M⁻¹ s⁻¹
same,kobs /[I] human thrombin,human thrombin,41 M⁻¹ s⁻¹
"Cl.N=C(N)c1ccc(C(NC(=O)OCc2ccccc2)P(=O)(Oc2ccc(Cl)cc2)Oc2ccc(Cl)cc2)cc1 (stereo not drawn) [Cbz-(4-AmPhGly)^P (OPh-p-Cl)2, Di-p-chlorophenyl N-Benzyloxycarbonylamino-(4-amidinophenyl)methanephosphonate Hydrochloride]",kobs /[I] mast cell tryptase,mast cell tryptase,3 ± 0 M⁻¹ s⁻¹
same,kobs /[I] bovine trypsin,bovine trypsin; Table II,"41,100 ± 5400 M^-1 s^-1"
same,kobs /[I] human thrombin,human thrombin,"9,300 ± 210 M^-1 s^-1"
N=C(N)c1ccc(C(NC(=O)CNC(=O)OCc2ccccc2)P(=O)(Oc2ccccc2)Oc2ccccc2)cc1 (stereo not drawn) [Cbz--Gly-(4-AmPhGly)^P (OPh)2],kobs /[I] bovine trypsin,bovine trypsin; Table II,195 ± 9 M⁻¹ s⁻¹
same,kobs /[I] human thrombin,human thrombin,24 ± 3 M⁻¹ s⁻¹

# From US5952307A, “Basic α-aminoalkylphosphonate derivatives” (priority 1997, dated 1999)
